According to PubChem BioAssay AID328 (DTP/NCI, 2004):
“And” between values parts separate entries of the source, which are not always exact repeats. Equal entries are not always repeated. Toxic doses and inconclusive results are not listed.

System: BDF1 mice, P388 leukemia ip, median survival T/C
Experiment: NCI In Vivo Anticancer Drug Screen. Data for tumor model P388 Leukemia (intraperitoneal) in B6D2F1 (BDF1) mice
Conditions: endpoint: median survival time, higher = longer survival
Method in brief: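 Mice carrying the transplantable tumour receive compound or vehicle. Survival is followed in each arm, and the treated measure is divided by the vehicle measure.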

[1] = dose: 50.0 mg/kg/injection, schedule: Q04DX003 (ip), vehicle: Klucel (hydroxypropylcellulose) (HPC)
[2] = dose: 100.0 mg/kg/injection, schedule: Q04DX003 (ip), vehicle: Klucel (hydroxypropylcellulose) (HPC)
[3] = dose: 200.0 mg/kg/injection, schedule: Q04DX003 (ip), vehicle: Klucel (hydroxypropylcellulose) (HPC)

CNC(=O)c1nc(C)c(C)nc1OCc1ccccc1
T/C (dose: 12.5 mg/kg/injection, schedule: Q01DX009 (ip), vehicle: saline): 100 % of control
T/C (dose: 25.0 mg/kg/injection, schedule: Q01DX009 (ip), vehicle: saline): 95 % of control and 124 % of control
T/C (dose: 50.0 mg/kg/injection, schedule: Q01DX009 (ip), vehicle: saline): 97 % of control and 111 % of control
T/C (dose: 50.0 mg/kg/injection, schedule: Q04DX003 (ip), vehicle: saline): 111 % of control
T/C (dose: 100.0 mg/kg/injection, schedule: Q01DX009 (ip), vehicle: saline): 106 % of control and 109 % of control
T/C (dose: 100.0 mg/kg/injection, schedule: Q04DX003 (ip), vehicle: saline): 100 % of control
T/C (dose: 200.0 mg/kg/injection, schedule: Q01DX009 (ip), vehicle: saline): 91 % of control
T/C (dose: 200.0 mg/kg/injection, schedule: Q04DX003 (ip), vehicle: saline): 96 % of control
T/C (dose: 300.0 mg/kg/injection, schedule: Q01DX009 (ip), vehicle: saline): 97 % of control
T/C (dose: 400.0 mg/kg/injection, schedule: Q01DX009 (ip), vehicle: saline): 119 % of control
T/C (dose: 400.0 mg/kg/injection, schedule: Q04DX003 (ip), vehicle: saline): 88 % of control

O=C(C[n+]1ccccc1)N/N=C/c1ccc([N+](=O)[O-])s1
T/C (dose: 12.5 mg/kg/injection, schedule: Q01DX009 (ip), vehicle: water): 114 % of control
T/C (dose: 25.0 mg/kg/injection, schedule: Q04DX003 (ip), vehicle: water): 90 % of control
T/C (dose: 50.0 mg/kg/injection, schedule: Q04DX003 (ip), vehicle: water): 104 % of control

CCCCC(=O)N/N=C(\C)[C@]1(O)Cc2c(O)c3c(c(O)c2[C@@H](OC2CC(N)C(O)C(C)O2)C1)C(=O)c1c(OC)cccc1C3=O (stereo not given in full)
T/C (dose: 0.78 mg/kg/injection, schedule: Q01DX009 (ip), vehicle: saline): 109 % of control
T/C (dose: 1.56 mg/kg/injection, schedule: Q01DX009 (ip), vehicle: saline): 109 % of control
T/C (dose: 1.56 mg/kg/injection, schedule: Q01DX009 (ip), vehicle: water): 157 % of control
T/C (dose: 3.12 mg/kg/injection, schedule: Q01DX009 (ip), vehicle: saline): 122 % of control
T/C (dose: 3.12 mg/kg/injection, schedule: Q01DX009 (ip), vehicle: water): 172 % of control
T/C (dose: 6.25 mg/kg/injection, schedule: Q01DX009 (ip), vehicle: saline): 178 % of control

O=C(Nc1ccccc1)c1c(-c2ccccc2)oc2ccccc2c1=O
T/C (dose: 50.0 mg/kg/injection, schedule: Q04DX002 (ip), vehicle: saline with Tween-80): 95 % of control
T/C (dose: 100.0 mg/kg/injection, schedule: Q04DX002 (ip), vehicle: saline with Tween-80): 115 % of control
T/C (dose: 200.0 mg/kg/injection, schedule: Q04DX002 (ip), vehicle: saline with Tween-80): 100 % of control

O=C(O)c1ccc(COc2ccc([N+](=O)[O-])cc2Cl)cc1
T/C (dose: 50.0 mg/kg/injection, schedule: Q01DX009 (ip), vehicle: saline with Tween-80): 91 % of control
T/C (dose: 100.0 mg/kg/injection, schedule: Q01DX009 (ip), vehicle: saline with Tween-80): 100 % of control
T/C (dose: 200.0 mg/kg/injection, schedule: Q01DX009 (ip), vehicle: saline with Tween-80): 100 % of control

CCOC(=O)CNC(=O)CCCCSc1ncnc2nc[nH]c12
T/C (dose: 20.0 mg/kg/injection, schedule: Q01DX009 (ip), vehicle: Klucel (hydroxypropylcellulose) (HPC)): 97 % of control and 98 % of control
T/C (dose: 40.0 mg/kg/injection, schedule: Q01DX009 (ip), vehicle: Klucel (hydroxypropylcellulose) (HPC)): 91 % of control
T/C (dose: 80.0 mg/kg/injection, schedule: Q01DX009 (ip), vehicle: Klucel (hydroxypropylcellulose) (HPC)): 101 % of control and 111 % of control
T/C (dose: 160.0 mg/kg/injection, schedule: Q01DX009 (ip), vehicle: Klucel (hydroxypropylcellulose) (HPC)): 89 % of control and 100 % of control
T/C (dose: 320.0 mg/kg/injection, schedule: Q01DX009 (ip), vehicle: Klucel (hydroxypropylcellulose) (HPC)): 87 % of control and 89 % of control
T/C (dose: 640.0 mg/kg/injection, schedule: Q01DX009 (ip), vehicle: Klucel (hydroxypropylcellulose) (HPC)): 86 % of control

Nc1ncc([N+](=O)[O-])cn1
T/C (dose: 100.0 mg/kg/injection, schedule: Q01DX009 (ip), vehicle: Klucel (hydroxypropylcellulose) (HPC)): 95 % of control
T/C (dose: 200.0 mg/kg/injection, schedule: Q01DX009 (ip), vehicle: Klucel (hydroxypropylcellulose) (HPC)): 90 % of control

O=P(Cc1ccccc1)(C(O)c1ccccc1)C(O)c1ccccc1 (stereo not given)
T/C [1]: 100 % of control
T/C [2]: 100 % of control
T/C [3]: 100 % of control

CCN1C(=O)CSC1=S
T/C (dose: 62.5 mg/kg/injection, schedule: Q01DX010 (ip), vehicle: saline): 109 % of control
T/C (dose: 125.0 mg/kg/injection, schedule: Q01DX010 (ip), vehicle: saline): 109 % of control
T/C (dose: 250.0 mg/kg/injection, schedule: Q01DX010 (ip), vehicle: saline): 90 % of control

CC1=CCC(CC(N)=O)C1(C)C (stereo not given)
T/C (dose: 100.0 mg/kg/injection, schedule: Q01DX001 (ip), vehicle: saline with Tween-80): 105 % of control
T/C (dose: 200.0 mg/kg/injection, schedule: Q01DX001 (ip), vehicle: saline with Tween-80): 103 % of control
T/C (dose: 400.0 mg/kg/injection, schedule: Q01DX001 (ip), vehicle: saline with Tween-80): 92 % of control

CCOC(=O)Cn1cnc2cc(Cl)c([N+](=O)[O-])cc2c1=O
T/C [1]: 96 % of control
T/C [2]: 104 % of control
T/C [3]: 102 % of control
T/C (dose: 400.0 mg/kg/injection, schedule: Q04DX003 (ip), vehicle: Klucel (hydroxypropylcellulose) (HPC)): 109 % of control

CC1=C/C(=C/c2ccccc2)CC(C)(C)C1 (tested in a mixture with another compound)
T/C (dose: 25.0 mg/kg/injection, schedule: Q01DX009 (ip), vehicle: saline sonified): 104 % of control
T/C (dose: 50.0 mg/kg/injection, schedule: Q01DX009 (ip), vehicle: saline sonified): 100 % of control
T/C (dose: 100.0 mg/kg/injection, schedule: Q01DX009 (ip), vehicle: saline sonified): 100 % of control
